Measurements published in PubChem BioAssay (NCI).
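48-hour exposure; five concentrations; linearly interpolated endpoints. GI50 = concentration required for 50% inhibition of growth. TGI: total growth inhibition.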 Where a SMILES comes first, the peptide text is derived from it. The star is where a group is joined. Palmitoyl = CCCCCCCCCCCCCCCC(=O)*

Columns and labels:
Assay in all cases: NCI-60 cell line screen, 48 h
786-0 renal = test system: 786-0 renal
T-47D breast = test system: T-47D breast
HS 578T breast = test system: HS 578T breast
ACHN renal = test system: ACHN renal
A549 NSCLC = test system: A549 NSCLC
NCI-H460 lung = test system: NCI-H460 lung
NCI-H226 lung = test system: NCI-H226 lung
SF-539 CNS = test system: SF-539 CNS
DU-145 prostate = test system: DU-145 prostate
HOP-92 NSCLC = test system: HOP-92 NSCLC

Row | Compound | TGI (786-0 renal) | TGI (T-47D breast) | TGI (HS 578T breast) | TGI (ACHN renal) | TGI (A549 NSCLC) | TGI (NCI-H460 lung) | TGI (NCI-H226 lung) | TGI (SF-539 CNS) | TGI (DU-145 prostate) | TGI (HOP-92 NSCLC) | GI50 (T-47D breast) | GI50 (HS 578T breast) | GI50 (ACHN renal) | GI50 (NCI-H460 lung) | GI50 (NCI-H226 lung) | GI50 (HOP-92 NSCLC) | GI50 (SF-539 CNS) | GI50 (DU-145 prostate) | GI50 (A549 NSCLC)
1 | CC1=C(O)C2=C(C(=O)C1=O)[C@@H](C)CC[C@@H]2[C@@H](C)C/C=C/C(C)(C)O | > 100 µM | 78.2 µM | > 100 µM | 98 µM | > 100 µM | > 100 µM | > 100 µM | > 100 µM | > 100 µM |  |  |  |  |  |  |  |  |  | 
2 | c1cnc2c(c1)ccc1cccnc12 | > 100 µM | > 100 µM | 97.8 µM | > 100 µM | > 100 µM | 7.98 µM | > 23.5 µM | > 100 µM | > 100 µM | > 100 µM |  |  |  |  |  |  |  |  | 
3 | c1ccc(-c2nc(N3CCNCC3)c3oc(-c4ccccc4)nc3n2)cc1 |  | 4.95 µM | 4.07 µM | 3 µM |  | 3.38 µM | 5.05 µM | 3.17 µM | 3.33 µM | 3.06 µM | 2100 nM | 1.88 µM | 1640 nM | 1.75 µM | 2110 nM | 1.46 µM | 1.76 µM | 1880 nM | 
4 | Cn1c(-c2ccccc2)cc(-c2cccs2)c1-c1cccs1 |  |  |  |  | > 100 µM | > 100 µM | > 100 µM | > 100 µM |  | > 100 µM |  |  |  |  |  |  |  |  | 
5 | CCN1CCC(O)(/C=C/c2ccccc2C)C(C(=O)/C=C/c2ccccc2C)C1 (stereo unspecified) |  | 4.32 µM | 16.2 µM |  | 12.8 µM | 3.18 µM |  | 4.28 µM | 4.05 µM | 3.38 µM |  |  |  |  |  |  |  |  | 
6 | COc1ccc(Oc2cccc(C3C4C(=O)N(c5ccc(C)c(Cl)c5)C(=O)C4ON3C(C(N)=O)c3ccccc3)c2)cc1 (stereo unspecified) | > 50 µM | 33 µM | > 50 µM | > 50 µM | > 50 µM | > 50 µM | 44.8 µM | 21.8 µM | 44.5 µM | > 50 µM |  |  |  |  |  |  |  |  | 
7 | CC12C=CC(=O)C=C1CCC1C3CCC(O)(C(=O)CO)C3(C)CC(O)C12F (stereo unspecified) | > 100 µM | > 100 µM | > 100 µM | > 100 µM | > 100 µM | > 100 µM | > 100 µM | > 100 µM | > 100 µM | > 100 µM |  |  |  |  |  |  |  |  | 
8 | COC(=O)c1c(C)n([O-])c2cc(Cl)c(Cl)cc2[n+]1=O | > 100 µM | > 100 µM | 65.6 µM | 62.8 µM | 28.6 µM | 29.2 µM |  | 54.4 µM | 38.4 µM |  |  |  |  |  |  |  |  |  | 
9 | CCOC(=O)c1c(C)n(-c2ccc(Cl)cc2)c2c1cc(O)c1[nH]c3c(c12)CCCC3 | > 100 µM | > 100 µM | 72.4 µM | > 100 µM | > 100 µM | > 100 µM | > 100 µM | > 100 µM | > 100 µM | > 100 µM |  |  |  |  |  |  |  |  | 
10 | CCCC1CCC(=C2C(=O)CCC2=O)O1 (stereo unspecified) | > 100 µM | > 100 µM | > 100 µM | > 100 µM | > 100 µM | > 100 µM | > 100 µM | > 100 µM | > 100 µM | > 100 µM |  |  |  |  |  |  |  |  | 
11 | CN1C(c2ccccc2)CC(=O)C(N)C1c1ccccc1 (stereo unspecified) | 97.7 µM |  |  | > 100 µM | > 100 µM | 55.6 µM | > 100 µM | > 96.5 µM |  | 78.9 µM |  |  |  |  |  |  |  |  | 
12 | Nc1nc(O)c2ncn([C@H]3CC[C@@H](CO)O3)c2n1 |  | > 100 µM | > 100 µM |  |  | > 100 µM | > 100 µM |  | > 100 µM | > 100 µM |  |  |  |  |  |  |  |  | 
13 | Cc1ccc(-c2nc(N/N=C/C=C/c3ccccc3)c3ccccc3n2)cc1 | > 100 µM | > 100 µM | > 100 µM | 75.9 µM | > 100 µM | > 100 µM | > 100 µM | > 100 µM | 96.4 µM | > 100 µM |  |  |  |  |  |  |  |  | 
14 | OCCN(CCO)c1ncnc2nc[nH]c12 | > 100 µM | > 100 µM | > 100 µM | > 100 µM | > 100 µM | > 100 µM | > 100 µM |  | > 100 µM | > 100 µM |  |  |  |  |  |  |  |  | 
15 | O=C(/C=C/c1ccc(Oc2cc(C(=O)/C=C/c3ccc(O)cc3)c(O)cc2O)cc1)c1ccc(O)cc1O | 16 µM | 27.4 µM | > 100 µM | 22.2 µM | 99.5 µM | 29.8 µM |  | 6.1 µM | 12.8 µM | 55.3 µM |  |  |  |  |  |  |  |  | 
16 | COC(=O)C1=C(OC(=O)/C(=C/c2ccc(Cl)cc2)c2ccc(Cl)cc2)C(C(=O)OC)[C@]2(O)[C@@H](C(=O)OC)[C@H]1C[C@@H](c1ccccc1)[C@@H]2C(=O)OC (stereo partly specified) |  | > 100 µM |  | > 100 µM | > 100 µM | > 100 µM | > 100 µM | > 100 µM | > 100 µM |  |  |  |  |  |  |  |  |  | 
17 | C/C(=N/N=C(\[O-])c1ccncc1)C(F)(F)F.C/C(=N\N=C(/[O-])c1ccncc1)C(F)(F)F.[Ni+2] |  | > 1 µM |  |  |  |  | > 1 µM |  | > 1 µM |  | > 1000 nM |  |  |  | > 1000 nM |  |  | > 1000 nM | 
18 | CCCCCCCCCCCCCCCC(=O)N1CCCC1C(=O)NCC(=O)NC(Cc1ccccc1)C(=O)NC(C)C(=O)NC(CO)C(=O)NC(Cc1ccc(O)cc1)C(=O)NC(CCCCN)C(=O)NC(CC(C)C)C(=O)NC(CCCN=C(N)N)C(=O)N1CCCC1C(=O)NCC(N)=O (stereo unspecified) (Palmitoyl-PGFASYKLRPG-NH2; configuration not given here) |  | 39.6 µM | > 100 µM |  | 40.8 µM | 61.4 µM | 35.6 µM | 61.4 µM | 43.6 µM | 34.7 µM | 17400 nM | 39.7 µM |  | 23.5 µM | 15900 nM | 15.8 µM | 24 µM | 15700 nM | 21.3 µM
19 | COc1cc(C(C)O)c[n+](Cc2ccccc2)c1 (stereo unspecified) | > 100 µM |  |  | > 100 µM | > 100 µM | > 100 µM | > 100 µM | > 100 µM |  | > 100 µM |  |  |  |  |  |  |  |  | 
20 | O=c1c2cc(S(=O)(=O)O)ccc2nc(COc2ccc(Oc3ccc(Cl)cc3Cl)cc2)n1-c1ccc(Oc2ccc(Cl)cc2)cc1Cl | 40.7 µM | > 100 µM | 42.3 µM | 56.6 µM | 40.6 µM | 32.8 µM | 48.9 µM | 32.3 µM | > 100 µM | 31.4 µM |  |  |  |  |  |  |  |  | 
21 | C[N+](C)(C)c1ncnc2c1ncn2C1CC(O)C(CO)O1 (stereo unspecified) | > 100 µM | > 100 µM | > 100 µM | > 100 µM | > 100 µM | > 100 µM | > 100 µM | > 100 µM | > 100 µM | > 100 µM |  |  |  |  |  |  |  |  | 
22 | Nc1[nH]c(=O)nc2c1cnn2C1CCCCO1 (stereo unspecified) |  |  |  | > 100 µM | > 100 µM | > 100 µM | > 100 µM | > 100 µM |  | > 100 µM |  |  |  |  |  |  |  |  | 
23 | CC(C)C(C(=O)O)N1C(=O)c2ccccc2C1=O (stereo unspecified) | > 100 µM | > 100 µM | > 100 µM | > 100 µM | > 100 µM | > 100 µM | > 100 µM |  | > 100 µM | > 100 µM |  |  |  |  |  |  |  |  | 
24 | COC(=O)/C=C(\CC(=O)OC)n1nnnc1[C@@H]1C[C@H](COC(c2ccccc2)(c2ccccc2)c2ccccc2)[C@H]2OC(C)(C)O[C@H]21 | > 100 µM | > 100 µM | > 100 µM | > 100 µM | > 100 µM |  | > 100 µM | > 100 µM | > 100 µM | > 100 µM |  |  |  |  |  |  |  |  | 
